Counter-ions that a name gives are not always drawn.
How the values were obtained:
Breast cancer = assay: Cytotoxic activity in different tumour models; format: cell-based, human; details: Number 4
RPMI 8322 melanoma cells = details: compared with the other peptides of PTC; cited from earlier work
NSC Lung cancer = assay: Cytotoxic activity in different tumour models; format: cell-based, human; details: Number 8
[1] = tested on: Hematological tumours (PHTC); assay: FMCA in PHTC cultures, Table 4, hematological; details: 4 µM; n=7-11; 4320 min
CEM/R = assay: cells; format: cell-based, human; details: CEM/R; 72 hours incubation; read-out: IC50
U937vcr = assay: cells; format: cell-based, human; details: U937vcr, vincristine resistance; 72 hours incubation; read-out: IC50
CEM/S = assay: cells; format: cell-based, human; details: CEM/S; 72 hours incubation; read-out: IC50
Ovarian carcinoma = assay: Cytotoxic activity in different tumour models; format: cell-based, human; details: Number 8
Adeno-carcinoma = assay: Cytotoxic activity in different tumour models; format: cell-based, human; details: Number 5
8226LR5 = assay: cells; format: cell-based, human; details: 8226LR5, melphalan resistance; 72 hours incubation; read-out: IC50
8226Dox40 = assay: cells; format: cell-based, human; details: 8226Dox40, doxorubicin resistance; 72 hours incubation; read-out: IC50
Prostate cancer = assay: Cytotoxic activity in different tumour models; format: cell-based, human; details: Number 1
[2] = tested on: fresh human tumour specimens; assay: FMCA cytotoxic activity in 27 fresh human tumour specimens (Figure 2); format: cell-based; details: 27 human tumour samples, 14 hematological and 13 solid, comparative statement
Corpus cancer = assay: Cytotoxic activity in different tumour models; format: cell-based, human; details: Number 4
[3] = tested on: solid tumour fresh human tumour specimens (PHTC); details: 0.66 µM; n=22; 4320 min
H69 = assay: cells; format: cell-based, human; details: H69, small cell lung cancer; 72 hours incubation; read-out: IC50
[4] = tested on: PHTC samples from 9 patients with hematological and 18 patients with solid tumours; assay: Circumvention of melphalan resistance: FMCA classification of PHTC samples as LDR, IDR, EDR; format: cell-based, human; details: tested at 4 µM
H69AR = assay: cells; format: cell-based, human; details: H69AR, doxorubicin resistance; 72 hours incubation; read-out: IC50
U937gtb = assay: cells; format: cell-based, human; details: U937gtb, lymphoma; 72 hours incubation; read-out: IC50
[5] = tested on: hematological fresh human tumour specimens (PHTC); details: 0.66 µM; n=42; 4320 min
[6] = tested on: primary cultures of human tumor cells from patients (PHTC), Total; assay: FMCA in PHTC cultures, Table 4, total; details: 4 µM; n=19-31; 4320 min
8226S = assay: cells; format: cell-based, human; details: 8226S, myeloma; 72 hours incubation; read-out: IC50
ACHN = assay: cells; format: cell-based, human; details: ACHN, primary resistant renal carcinoma; 72 hours incubation; read-out: IC50
Solid tumours (PHTC) = assay: FMCA in PHTC cultures, Table 4, solid; details: 4 µM; n=12-20; 4320 min
[7] = tested on: panel of ten human tumour cell lines; assay: cells; format: cell-based; details: mean over the ten cell lines; read-out: MEAN IC50
[8] = tested on: oxidative phosphorylation in mitochondria from rat liver homogenates and Jensen sarcoma cells; details: cited from earlier work
sarcoma 45 = details: rat, in vivo; cited from earlier work

CCOC(=O)[C@H](Cc1ccc(F)cc1)NC(=O)[C@H](Cc1cccc(N(CCCl)CCCl)c1)NC(=O)[C@@H]1CCCN1 [Example P2, L-prolyl-m-L-sarcolysyl-p-L-fluorophenylalanine ethyl ester hydrochloride, reference compound]
Median response at 4.0 µM >50% reduction in tumour cell survival (Breast cancer): No
cytotoxicity (RPMI 8322 melanoma cells): more toxic to RPMI 8322 melanoma cells than any of the other peptides
Median response at 4.0 µM >50% reduction in tumour cell survival (NSC Lung cancer): No
Tumour cell survival index (%) Hematological tumours [1]: 7%
IC50 (CEM/R): 0.63 µM
IC50 (U937vcr): 1.79 µM
IC50 (CEM/S): 0.94 µM
Median response at 4.0 µM >50% reduction in tumour cell survival (Ovarian carcinoma): No
Median response at 4.0 µM >50% reduction in tumour cell survival (Adeno-carcinoma): No
IC50 (8226LR5): 7.4 µM
IC50 (8226Dox40): 5.43 µM
Median response at 4.0 µM >50% reduction in tumour cell survival (Prostate cancer): No
IC50s (comparison) [2]: more active than melphalan
Median response at 4.0 µM >50% reduction in tumour cell survival (Corpus cancer): No
Tumour cell survival index % Solid [3]: 86.0%
IC50 (H69): 4.59 µM
Number of samples EDR ([4]; Extreme drug resistance): 1
Number of samples (%) EDR ([4]; Extreme drug resistance, percent of samples): 5%
Number of samples IDR ([4]; Intermediate drug resistance): 4
Number of samples (%) IDR ([4]; Intermediate drug resistance, percent of samples): 21%
Number of samples LDR ([4]; Low drug resistance): 14
Number of samples (%) LDR ([4]; Low drug resistance, percent of samples): 74%
IC50 (H69AR): 4.27 µM
IC50 (U937gtb): 1.78 µM
Tumour cell survival index % Hematological [5]: 34.7%
Tumour cell survival index (%) Total [6]: 46.1%
IC50 (8226S): 5.11 µM
IC50 (ACHN): 4.59 µM
Tumour cell survival index (%) Solid tumours (Solid tumours (PHTC)): 68.9%
IC50 [7]: 3.35 µM

CC(C)[C@H](NC(=O)[C@@H](N)Cc1ccc(N(CCCl)CCCl)cc1)C(=O)O [L-melphalanyl-L-valine]
oxidative phosphorylation [8]: disrupted oxidative phosphorylation

CCOC(=O)[C@H](Cc1ccc(O)cc1)NC(=O)[C@H](Cc1ccc(N(CCCl)CCCl)cc1)NC(C)=O [astyron, N-acetyl-L-melphalanyl-L-tyrosine ethyl ester]
sarcoma 45 growth (sarcoma 45): inhibited sarcoma 45 growth
